In patent US20050042238A1, “Process for treating aqueous systems” (priority 2003, published 2005):

Columns and labels:
[1] = test system: algae; experiment: Dosing of micro-mixed emulsion to cooling tower water, control of algae; conditions: isothiazolone 3 ppm in cooling water of a cooling tower; surfactant-free emulsion from micro-mixer
Experimental: A 50 wt. % solution of 4,5-dichloro-2-octyl-3-isothiazolone in benzyl alcohol is fed to an array of slit shaped interdigital micro-mixers at a feed rate of 50 mL/minute, combined with water fed to the micro-mixer at a feed rate of 600 mL/minute. The water contains no surfactants. The resulting emulsion exiting the micro-mixer it is directly dosed to cooling water in a 50,000 gallon […] cooling tower, where is effectively distributed and re-circulated throughout the cooling water. After about 20 minutes, the isothiazolone concentration in the cooling water reaches a desired concentration of 3 ppm and the emulsion feed is stopped. […] Focusing micro-mixers also produce similar results as compared to the micro-mixers described above. Melted 2-octyl-3-isothiazolone as a neat liquid is fed to an array of slit shaped interdigital micro-mixers at a feed rate of 50 mL/minute, combined with water fed to the micro-mixer at a feed rate of 600 mL/minute. The water contains no surfactants and solvents. The resulting emulsion exiting the micro-mixer it is directly dosed to cooling water in a 50,000 gallon […] cooling tower, where is effectively distributed and re-circulated throughout the cooling water. After about 20 minutes, the isothiazolone concentration in the cooling water reaches a desired concentration of 3 ppm and the emulsion feed is stopped. […]

[2] = test system: mold; experiment: Dosing of micro-mixed emulsion to paper pulp slurry tank, mold proofing of paper; conditions: 50 wt. % solution in benzyl alcohol micro-mixed with water, charged to 10,000 liter pulp slurry tank
Experimental: A 10,000 liter pulp slurry tank has a continuous throughput averaging 6,600 liters/minute. A 50 wt. % solution of 4,5-dichloro-2-octyl-3-isothiazolone in benzyl alcohol is fed to an array of slit shaped interdigital micro-mixers at a feed rate of 56 mL/minute, combined with water fed to the micro-mixer at a feed rate of 600 mL/minute. The water contains no surfactants. The resulting emulsion exiting the micro-mixer is directly charged to water in the pulp slurry tank, where it is effectively distributed and re-circulated throughout the tank water. […] Focusing micro-mixers also produce similar results as compared to the micro-mixers described above.

Compound | control of algae in cooling water [1] | mold proofing in paper prepared from treated pulp [2]
CCCCCCCCn1sccc1=O [2-octyl-3-isothiazolone] | Effective control of algae | –
CCCCCCCCn1sc(Cl)c(Cl)c1=O [4,5-dichloro-2-octyl-3-isothiazolone] | Effective control of algae | effective mold proofing
